Biological target: T1, human PAD4 (Homo sapiens, UniProt Q9UM07)
T1 construct: human PAD4 (NM_012387), A2-P663, was PCR amplified; His-SUMO (N, cleaved yes); made in house; host or cells: E. coli BL21(DE3)
Test: In vitro PAD4 BAEE biochemical assay
Conditions: BAEE substrate 3 mM, 5 nM PAD4, 2 mM calcium chloride; geometric mean of multiple experiments
How it was run: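 Fluorescence read-out (ex 405/em 535 nm) of isoindole formed from ammonia, o-phthalaldehyde and DTT after EDTA stop. Reaction: 5 nM PAD4, 2 mM CaCl2, 3 mM BAEE, 2 h, 25 °C, after 30 min enzyme–compound preincubation. Normalised to BB-Cl-Amidine (50 µM) and DMSO controls.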

T1 sequence (Q9UM07 2-663): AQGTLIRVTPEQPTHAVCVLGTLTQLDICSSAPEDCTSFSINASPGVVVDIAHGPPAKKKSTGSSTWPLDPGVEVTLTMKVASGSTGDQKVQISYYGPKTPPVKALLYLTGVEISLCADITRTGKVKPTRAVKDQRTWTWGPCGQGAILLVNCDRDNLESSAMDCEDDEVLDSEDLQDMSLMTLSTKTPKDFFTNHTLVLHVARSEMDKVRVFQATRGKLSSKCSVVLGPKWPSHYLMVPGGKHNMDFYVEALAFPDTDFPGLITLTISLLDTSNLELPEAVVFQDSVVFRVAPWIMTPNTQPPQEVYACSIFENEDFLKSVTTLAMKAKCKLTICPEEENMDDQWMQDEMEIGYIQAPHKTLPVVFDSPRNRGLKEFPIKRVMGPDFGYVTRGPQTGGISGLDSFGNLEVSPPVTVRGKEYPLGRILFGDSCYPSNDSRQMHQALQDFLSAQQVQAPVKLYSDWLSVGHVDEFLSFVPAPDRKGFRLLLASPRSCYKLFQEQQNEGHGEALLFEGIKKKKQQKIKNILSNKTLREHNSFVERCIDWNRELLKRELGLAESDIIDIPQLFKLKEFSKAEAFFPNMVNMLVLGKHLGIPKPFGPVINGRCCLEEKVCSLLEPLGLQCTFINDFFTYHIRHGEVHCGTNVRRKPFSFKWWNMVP

IC50 [nM] | Structure (SMILES)
175 | COc1cc(C(=O)N2CCC[C@@H](N)C2)cc2nc(-c3cc4ccc5nc4n3C[C@H]3C[C@H]3COCC3(CC3)C(=O)N[C@@H]5C)n(C)c12 [Example 311, (3~{S],5~{R},12~{R})-18-[5-[(3~{R})-3-aminopiperidine-1-carbonyl]-7-methoxy-1-methyl-benzimidazol-2-yl]-12-methyl-spiro[7-oxa-1,11,20-triazatetracyclo[11.5.2.0^{3,5}.0^{16,19}]icosa-13(20),14,16(19),17-tetraene-9,1′-cyclopropane]-10-one]
112 | COc1cc(C(=O)N2CCC[C@@H](N)C2)cc2nc(-c3cc4ccc5nc4n3CCCCCCNC(=O)c3ccccc3-5)n(C)c12 [Example 49, 17-[5-[(3~{R})-3-aminopiperidine-1-carbonyl]-7-methoxy-1-methyl-benzimidazol-2-yl]-9,16,22-triazatetracyclo[14.5.2.0^{2,7}.0^{19,23}] tricosa-1(22),2,4,6,17,19(23),20-heptaen-8-one]
384 | COc1cc(C(=O)N2C[C@@H]3C[C@@H]3[C@@H](N)C2)cc2nc(-c3cc4ccc5nc4n3CCCCCCC(C)(C)C(=O)N[C@@H]5C)n(C)c12 [Example 535, (11~{R})-17-[5-[(1~ {R},5~{R},6~{S})-5-amino-3-azabicyclo[4.1.0]heptane-3-carbonyl]-7-methoxy-1-methyl-benzimidazol-2-yl]-8,8,11-trimethyl-1,10,19-triazatricyclo[10.5.2.0^ {15,18}]nonadeca-12(19),13,15(18),16-tetraen-9-one]
175 | C[C@H]1NC(=O)[C@H]2C[C@@H]2CCCCCn2c(-c3nc4cc(C(=O)N[C@H]5CNCC[C@@H]5F)c(F)cc4n3C3CC3)cc3ccc1nc32 [Example 539, 1-cyclopropyl-6-fluoro-~{N}-[(3~{S},4~{S})-4-fluoro-3-piperidyl]-2-[(2~{R},5~{S},7~ {S})-2-methyl-4-oxo-3,13,19-triazatetracyclo [11.5.2.0^{5,7}.0^{16,20}]icosa-1(19),14,16 (20),17-tetraen-14-yl]benzimidazole-5-carboxamide]
28 | C[C@H]1NC(=O)[C@@H]2C[C@H]2CCCC(F)(F)Cn2c(-c3nc4cc(C(=O)N5C[C@H](N)[C@@H]6CC[C@H]5C6)cc(F)c4n3C3CC3)cc3cc(F)c1cc32 [Example 464, (2~{R},5~{R},7~{R})-14-[5-[(1~{S},4~{R},5~{R})-4-amino-2-azabicyclo[3.2.1]octane-2-carbonyl]-1-cyclopropyl-7-fluoro-benzimidazol-2-yl]-11,11,18-trifluoro-2-methyl-3,13-diazatetracyclo[11.5.2.0^{5,7}.0^{16,20}] icosa-1(19),14,16(20),17-tetraen-4-one]
2580 | COc1cc(C(=O)N[C@H]2CNCC[C@@H]2O)cc2nc(-c3cc4ccc5nc4n3CCCCCCC(C)(C)C(=O)N[C@@H]5C)n(C)c12 [Example 244, ~{N}-[(3~{S},4~{S})-4-hydroxy-3-piperidyl]-7-methoxy-1-methyl-2-[(11~{R})-8,8,11-trimethyl-9-oxo-1,10,19-triazatricyclo[10.5.2.0^{15,18}]nonadeca-12(19),13,15(18),16-tetraen-17-yl]benzimidazole-5-carboxamide]
5 | C[C@@H]1[C@H](N)CCCN1C(=O)c1cc(F)c2c(c1)nc(-c1cc3ccc4nc3n1CCCCCc1nc3ccsc3cc1C(=O)N[C@@H]4C)n2C1CC1 [Example 796, (2~{R})-20-[5-[(2~{R},3~{R})-3-amino-2-methyl-piperidine-1-carbonyl]-1-cyclopropyl-7-fluoro-benzimidazol-2-yl]-2-methyl-8-thia-3,12,19,25-tetrazapentacyclo[17.5.2.0^ {5,13}.0^{7,11).0^{22,26}] hexacosa-1(24),5(13), 6,9,11,20,22,25-octaen-4-one]
17 | COc1cc(C(=O)N2[C@H]3CC[C@@H]2[C@H](N)C3)cc2nc(-c3cc4ccc5nc4n3CCCCCC(=O)N[C@@H]5C)c(C)n12 [Example 320, (9~{R})-15-[7-[(1~{R},2~{R},4~{S})-2-amino-7-azabicyclo[2.2.1]heptane-7-carbonyl]-5-methoxy-3-methyl-imidazo[1,2-a]pyridin-2-yl]-9-methyl-1,8,17-triazatricyclo[8.5.2.0^{13,16}]heptadeca-10(17),11,13(16),14-tetraen-7-one]
309 | COc1cc(C(=O)N2CC[C@@H](OC(F)F)[C@@H](N)C2)cc2nc(-c3cc4ccc5nc4n3CCCCCC[C@@](C)(C(F)(F)F)C(=O)N[C@@H]5C)n(C)c12 [Example 723, (8~{R},11~{R})-17-[5-[(3~ {S},4~{R})-3-amino-4-(difluoromethoxy)piperidine-1-carbonyl]-7-methoxy-1-methyl-benzimidazol-2-yl]-8,11-dimethyl-8-(trifluoromethyl)-1,10,19-triazatricyclo[10.5.2.0^ {15,18}]nonadeca-12(19), 13,15(18),16-tetraen-9-one]
35 | C[C@H]1NC(=O)[C@@H]2C[C@@H]2CCCCCn2c(-c3nc4cc(C(=O)N[C@H]5CNCC[C@@H]5F)c(F)cc4n3C3CC3)cc3ccc1nc32 [Example 520, 1-cyclopropyl-6-fluoro-~ {N}-[(3~{S},4~{S})-4-fluoro-3-piperidyl]-2-[(2~{R},5~{R},7~{S})-2-methyl-4-oxo-3,13,19-triazatetracyclo[11.5.2.0^ {5,7}.0^{16,20}]icosa-1(19),14,16(20),17-tetraen-14-yl]benzimidazole-5-carboxamide]
26 | COc1cc(C(=O)N2C[C@H](N)[C@@H]3CC[C@H]2C3)cc2nc(-c3cc4ccc5nc4n3CCCCC[C@]3(F)C[C@H]3C(=O)N[C@@H]5C)c(C)n12 [Example 815, (2~{R},5~{S},7~{S})-14-[7-[(1~{S},4~{R},5~{R})-4-amino-2-azabicyclo[3.2.1]octane-2-carbonyl]-5-methoxy-3-methyl-imidazo[1,2-a]pyridin-2-yl]-7-fluoro-2-methyl-3,13,19-triazatetracyclo [11.5.2.0^{5,7}.0^{16,20}] icosa-1(18),14,16,19-tetraen-4-one]
367 | COc1cc(C(=O)N[C@@H]2CCCCNC2)cc2nc(-c3cc4ccc5nc4n3CCCCCCC3(CC3)C(=O)N[C@@H]5C)n(C)c12 [Example 77, ~{N}-[(3~{R})-azepan-3-yl]-7-methoxy-1-methyl-2-[(11~{R})-11-methyl-9-oxo-spiro[1,10,19-triazatricyclo[10.5.2.0^{15,18}]nonadeca-12(19),13,15(18),16-tetraene-8,1′-cyclopropane]-17-yl]benzimidazole-5-carboxamide]
143 | COc1cc(C(=O)N2CC[C@@H](OC)[C@@H](N)C2)cc2nc(-c3cc4ccc5nc4n3CCCCCc3cc4ccccc4nc3C(=O)N(C)[C@@H]5C)n(C)c12 [Example 735, (2~{R})-21-[5-[(3~{S},4~ {R})-3-amino-4-methoxy-piperidine-1-carbonyl]-7-methoxy-1-methyl-benzimidazol-2-yl]-2,3-dimethyl-3,6,20,26-tetrazapentacyclo[18.5.2.0^ {5,14).0^{7,12}.0^ {23,27}]heptacosa-1(26),5(14),6,8,10,12,21,23(27), 24-nonaen-4-one]
118 | COc1cc(C(=O)N2CC[C@@H](OC)[C@@H](N)C2)cc2nc(-c3cc4ccc5nc4n3CCCCCCC(C)(C)C(=O)N[C@@H]5C)n(C)c12 [Example 60, (11~{R})-17-[5-[(3~{S},4~{R})-3-amino-4-methoxy-piperidine-1-carbonyl]-7-methoxy-1-methyl-benzimidazol-2-yl]-8,8,11-trimethyl-1,10,19-triazatricyclo[10.5.2.0^{15,18}]nonadeca-12(19),13,15(18),16-tetraen-9-one]
287 | COc1cc(C(=O)N[C@H]2CNC[C@@H](C)C2)cc2nc(-c3cc4ccc5nc4n3CCCCCCC(C)(C)C(=O)N[C@@H]5C)n(C)c12 [Example 68, 7-methoxy-1-methyl-~{N}-[(3~{R},5~{S})-5-methyl-3-piperidyl]-2-[(11~{R})-8,8,11-trimethyl-9-oxo-1,10,19-triazatricyclo[10.5.2.0^{15,18}]nonadeca-12(19),13,15(18),16-tetraen-17-yl]benzimidazole-5-carboxamide]
18 | CO[C@@H]1CCN(C(=O)c2ccc3c(c2)nc(-c2cc4ccc5nc4n2CCCCCc2nc(Cl)ccc2C(=O)N[C@@H]5C)n3C2CC2)C[C@@H]1N [Example 693, (2~{R})-17-[5-[(3~{S},4~ {R})-3-amino-4-methoxy-piperidine-1-carbonyl]-1-cyclopropyl-benzimidazol-2-yl]-8-chloro-2-methyl-3,9,16,22-tetrazatetracyclo [14.5.2.0^{5,10}.0^ {19,23}]tricosa-1(22), 5(10),6,8,17,19(23), 20-heptaen-4-one]
21 | COc1cc(C(=O)N2CC[C@@H](OC)[C@@H](N)C2)cc2nc(-c3cc4ccc5nc4n3CC(F)(F)CCC[C@]3(F)C[C@H]3C(=O)N[C@@H]5C)n(C)c12 [Example 702, (2~{R},5~{S},7~{S})-14-[5-[(3~{S},4~{R})-3-amino-4-methoxy-piperidine-1-carbonyl]-7-methoxy-1-methyl-benzimidazol-2-yl]-7,11,11-trifluoro-2-methyl-3,13,19-triazatetracyclo[11.5.2.0^ {5,7}.0^{16,20}]icosa-1(19),14,16(20),17-tetraen-4-one]
53 | COc1cc(C(=O)N2CC[C@@H](OC)[C@@H](N)C2)cc2nc(-c3cc4ccc5nc4n3CCCCCc3ccc(Cl)nc3C(=O)N[C@@H]5C)n(C)c12 [Example 780, (2~{R})-17-[5-[(3~{S},4~{R})-3-amino-4-methoxy-piperidine-1-carbonyl]-7-methoxy-1-methyl-benzimidazol-2-yl]-7-chloro-2-methyl-3,6,16,22-tetrazatetracyclo[14.5.2.0^ {5,10).0^{19,23}]tricosa-1(21),5(10),6,8,17,19,22-heptaen-4-one]

From US11976083B2, “Inhibitors of peptidylarginine deiminases” (Gilead Sciences, Inc., priority 2020, dated 2024)
